{"source": "ChEMBL document CHEMBL3045656", "about": "“Is the application of carbendazim harmful to healthy plants? Evidence of weak phytotoxicity in tobacco” (J Agric Food Chem, 2002)", "type_in_all_cases": "organism-based", "key": {"[1]": {"tested_on": "Nicotiana tabacum", "test": "Toxicity in Nicotiana tabacum (tobacco) leaves assessed as calcium level per gram of dry weight per leaf at 5.2 mM treated 3 times in 2 weeks measured prior to onset of flowering relative to control", "settings": "in vivo, 336 h, 5200 µM"}, "[2]": {"tested_on": "Nicotiana tabacum", "test": "Toxicity in Nicotiana tabacum (tobacco) leaves assessed as calcium level per gram of dry weight per leaf at 2.6 mM treated 3 times in 2 weeks measured prior to onset of flowering relative to control", "settings": "in vivo, 336 h, 2600 µM"}, "[3]": {"tested_on": "Nicotiana tabacum", "test": "Toxicity in Nicotiana tabacum (tobacco) leaves assessed as calcium level per gram of dry weight per leaf at 1.3 mM treated 3 times in 2 weeks measured prior to onset of flowering relative to control", "settings": "in vivo, 336 h, 1300 µM"}, "[4]": {"tested_on": "Nicotiana tabacum", "test": "Toxicity in Nicotiana tabacum (tobacco) leaves assessed as potassium level per gram of dry weight per leaf at 5.2 mM treated 3 times in 2 weeks measured prior to onset of flowering relative to control", "settings": "in vivo, 336 h, 5200 µM"}, "[5]": {"tested_on": "Nicotiana tabacum", "test": "Toxicity in Nicotiana tabacum (tobacco) leaves assessed as potassium level per gram of dry weight per leaf at 2.6 mM treated 3 times in 2 weeks measured prior to onset of flowering relative to control", "settings": "in vivo, 336 h, 2600 µM"}, "[6]": {"tested_on": "Nicotiana tabacum", "test": "Toxicity in Nicotiana tabacum (tobacco) leaves assessed as potassium level per gram of dry weight per leaf at 1.3 mM treated 3 times in 2 weeks measured prior to onset of flowering relative to control", "settings": "in vivo, 336 h, 1300 µM"}, "[7]": {"tested_on": "Nicotiana tabacum", "test": "Toxicity in Nicotiana tabacum (tobacco) leaves assessed as phosphorus level per gram of dry weight per leaf at 5.2 mM treated 3 times in 2 weeks measured prior to onset of flowering relative to control", "settings": "in vivo, 336 h, 5200 µM"}, "[8]": {"tested_on": "Nicotiana tabacum", "test": "Toxicity in Nicotiana tabacum (tobacco) leaves assessed as phosphorus level per gram of dry weight per leaf at 2.6 mM treated 3 times in 2 weeks measured prior to onset of flowering relative to control", "settings": "in vivo, 336 h, 2600 µM"}, "[9]": {"tested_on": "Nicotiana tabacum", "test": "Toxicity in Nicotiana tabacum (tobacco) leaves assessed as phosphorus level per gram of dry weight per leaf at 1.3 mM treated 3 times in 2 weeks measured prior to onset of flowering relative to control", "settings": "in vivo, 336 h, 1300 µM"}, "[10]": {"tested_on": "Nicotiana tabacum", "test": "Toxicity in Nicotiana tabacum (tobacco) leaves assessed as nitrogen level per gram of dry weight per leaf at 5.2 mM treated 3 times in 2 weeks measured prior to onset of flowering relative to control", "settings": "in vivo, 336 h, 5200 µM"}, "[11]": {"tested_on": "Nicotiana tabacum", "test": "Toxicity in Nicotiana tabacum (tobacco) leaves assessed as nitrogen level per gram of dry weight per leaf at 2.6 mM treated 3 times in 2 weeks measured prior to onset of flowering relative to control", "settings": "in vivo, 336 h, 2600 µM"}, "[12]": {"tested_on": "Nicotiana tabacum", "test": "Toxicity in Nicotiana tabacum (tobacco) leaves assessed as nitrogen level per gram of dry weight per leaf at 1.3 mM treated 3 times in 2 weeks measured prior to onset of flowering relative to control", "settings": "in vivo, 336 h, 1300 µM"}, "[13]": {"tested_on": "Nicotiana tabacum", "test": "Toxicity in Nicotiana tabacum (tobacco) leaves assessed as effect on carotenoids level at 5.2 mM treated 3 times in 2 weeks measured prior to onset of flowering relative to control", "settings": "in vivo, 336 h, 5200 µM"}, "[14]": {"tested_on": "Nicotiana tabacum", "test": "Toxicity in Nicotiana tabacum (tobacco) leaves assessed as effect on carotenoids level at 2.6 mM treated 3 times in 2 weeks measured prior to onset of flowering relative to control", "settings": "in vivo, 336 h, 2600 µM"}, "[15]": {"tested_on": "Nicotiana tabacum", "test": "Toxicity in Nicotiana tabacum (tobacco) leaves assessed as effect on carotenoids level at 1.3 mM treated 3 times in 2 weeks measured prior to onset of flowering relative to control", "settings": "in vivo, 336 h, 1300 µM"}, "[16]": {"tested_on": "Nicotiana tabacum", "test": "Toxicity in Nicotiana tabacum (tobacco) leaves assessed as effect on chlorophyll-b level at 5.2 mM treated 3 times in 2 weeks measured prior to onset of flowering relative to control", "settings": "in vivo, 336 h, 5200 µM"}, "[17]": {"tested_on": "Nicotiana tabacum", "test": "Toxicity in Nicotiana tabacum (tobacco) leaves assessed as effect on chlorophyll-b level at 2.6 mM treated 3 times in 2 weeks measured prior to onset of flowering relative to control", "settings": "in vivo, 336 h, 2600 µM"}, "[18]": {"tested_on": "Nicotiana tabacum", "test": "Toxicity in Nicotiana tabacum (tobacco) leaves assessed as effect on chlorophyll-b level at 1.3 mM treated 3 times in 2 weeks measured prior to onset of flowering relative to control", "settings": "in vivo, 336 h, 1300 µM"}, "[19]": {"tested_on": "Nicotiana tabacum", "test": "Toxicity in Nicotiana tabacum (tobacco) leaves assessed as effect on chlorophyll-a level at 5.2 mM treated 3 times in 2 weeks measured prior to onset of flowering relative to control", "settings": "in vivo, 336 h, 5200 µM"}, "[20]": {"tested_on": "Nicotiana tabacum", "test": "Toxicity in Nicotiana tabacum (tobacco) leaves assessed as effect on chlorophyll-a level at 2.6 mM treated 3 times in 2 weeks measured prior to onset of flowering relative to control", "settings": "in vivo, 336 h, 2600 µM"}, "[21]": {"tested_on": "Nicotiana tabacum", "test": "Toxicity in Nicotiana tabacum (tobacco) leaves assessed as effect on chlorophyll-a level at 1.3 mM treated 3 times in 2 weeks measured prior to onset of flowering relative to control", "settings": "in vivo, 336 h, 1300 µM"}, "[22]": {"tested_on": "Nicotiana tabacum", "test": "Toxicity in Nicotiana tabacum (tobacco) leaves assessed as magnesium level per gram of dry weight per leaf at 5.2 mM treated 3 times in 2 weeks measured prior to onset of flowering relative to control", "settings": "in vivo, 336 h, 5200 µM"}, "[23]": {"tested_on": "Nicotiana tabacum", "test": "Toxicity in Nicotiana tabacum (tobacco) leaves assessed as magnesium level per gram of dry weight per leaf at 2.6 mM treated 3 times in 2 weeks measured prior to onset of flowering relative to control", "settings": "in vivo, 336 h, 2600 µM"}, "[24]": {"tested_on": "Nicotiana tabacum", "test": "Toxicity in Nicotiana tabacum (tobacco) leaves assessed as magnesium level per gram of dry weight per leaf at 1.3 mM treated 3 times in 2 weeks measured prior to onset of flowering relative to control", "settings": "in vivo, 336 h, 1300 µM"}, "[25]": {"tested_on": "Nicotiana tabacum", "test": "Toxicity in Nicotiana tabacum (tobacco) leaves assessed as reduction of dry weight at 5.2 mM treated 3 times in 2 weeks measured prior to onset of flowering relative to control", "design": "scale not given: the % may be the effect or the level left", "settings": "in vivo, 336 h, 5200 µM"}, "[26]": {"tested_on": "Nicotiana tabacum", "test": "Toxicity in Nicotiana tabacum (tobacco) leaves assessed as reduction of dry weight at 1.3 to 2.6 mM treated 3 times in 2 weeks measured prior to onset of flowering", "settings": "in vivo, 336 h, 2600 µM"}}}
{"smiles": "COC(=O)Nc1nc2ccccc2[nH]1", "note": "[CARBENDAZIM]", "values": [{"measurement": "Activity", "setting": "[1]", "result": 10.1, "unit": "mg"}, {"measurement": "Activity", "setting": "[2]", "result": 10.2, "unit": "mg"}, {"measurement": "Activity", "setting": "[3]", "result": 10.5, "unit": "mg"}, {"measurement": "Activity", "setting": "[4]", "result": 34.1, "unit": "mg"}, {"measurement": "Activity", "setting": "[5]", "result": 35.4, "unit": "mg"}, {"measurement": "Activity", "setting": "[6]", "result": 36.7, "unit": "mg"}, {"measurement": "Activity", "setting": "[7]", "result": 8.47, "unit": "mg"}, {"measurement": "Activity", "setting": "[8]", "result": 8.61, "unit": "mg"}, {"measurement": "Activity", "setting": "[9]", "result": 9.73, "unit": "mg"}, {"measurement": "Activity", "setting": "[10]", "result": 38.9, "unit": "mg"}, {"measurement": "Activity", "setting": "[11]", "result": 41.6, "unit": "mg"}, {"measurement": "Activity", "setting": "[12]", "result": 41.7, "unit": "mg"}, {"measurement": "Activity", "setting": "[13]", "result": 3.9, "unit": "microg/cm2"}, {"measurement": "Activity", "setting": "[14]", "result": 4.64, "unit": "microg/cm2"}, {"measurement": "Activity", "setting": "[15]", "result": 4.8, "unit": "microg/cm2"}, {"measurement": "Activity", "setting": "[16]", "result": 21.9, "unit": "microg/cm2"}, {"measurement": "Activity", "setting": "[17]", "result": 24.98, "unit": "microg/cm2"}, {"measurement": "Activity", "setting": "[18]", "result": 25.88, "unit": "microg/cm2"}, {"measurement": "Activity", "setting": "[19]", "result": 54.14, "unit": "microg/cm2"}, {"measurement": "Activity", "setting": "[20]", "result": 62.46, "unit": "microg/cm2"}, {"measurement": "Activity", "setting": "[21]", "result": 66.82, "unit": "microg/cm2"}, {"measurement": "Activity", "setting": "[22]", "result": 6.5, "unit": "mg"}, {"measurement": "Activity", "setting": "[23]", "result": 6.7, "unit": "mg"}, {"measurement": "Activity", "setting": "[24]", "result": 6.4, "unit": "mg"}, {"measurement": "Activity", "setting": "[25]", "result": 17, "unit": "%"}, {"measurement": "Activity", "setting": "[26]", "result": "Non-toxic"}]}
